We go through seven molecules from patent US8354407B2 (Boehringer Ingelheim International GmbH, priority 2006, dated 2013).

The experiment deals with T1, full-length human PKCα enzyme (Homo sapiens, UniProt P17252).
T1 construct: full-length human PKCα enzyme; purchased Upstate Biotechnology
Description: Assessment of PKC-α Inhibitory Activity (MALDI-TOF kinase assay). To be noted: full-length human PKCα 0.12 μg/ml; ATP 45 μM; neurogranin 28-43 peptide 22 μM; 30 minute incubation at 24° C.; MALDI-TOF MS readout. The class given is biochemical. The protocol:
Measurement of PKCα enzyme activity is performed using full-length human PKCα enzyme (Upstate Biotechnology) at a final concentration of 0.12 μg/ml in a kinase assay buffer (0.09 mg/ml bovine serum albumin (BSA), 210 μM ethylenediaminetetraacetic acid (EDTA), 360 μM CaCl2, 1 mM Tris-HCl, pH=7.5, 0.5 mM MgCl2, 0.015 mg/ml phosphatidylserine and 0.015 mg/ml diacylglycerol). The reaction is initiated by addition of adenosine triphosphate (ATP; final concentration 45 μM) and a peptide substrate consisting of amino acids 28-43 (Ala-Ala-Lys-Ile-Gln-Ala-Ser-Phe-Arg-Gly-His-Met-Ala-Arg-Lys-Lys) of neurogranin (Promega; final concentration 22 μM). After a 30 minute incubation at 24° C. the reaction is terminated by adding 5 μL of the reaction mixture into 50 μL of MALDI matrix solution (5 mg/ml α-cyano-4-hydroxycinnamic acid in 50% Acetonitrile/H2O, 0.1% TFA, 5 mM ammonium phosphate). Two microliters of the stopped reaction mixture is transferred onto a MALDI-TOF mass spectrometer target plate.
All spectra are collected on an Applied Biosystems 4700 Proteomics Analyzer MALDI-TOF MS equipped with a Nd:YAG laser (355 nm, 3 ns pulse width, 200 Hz repetition rate) in negative ion reflector mode. The system is operated with 4700 Explorer software, version 3.0. Automated acquisition parameters are adjusted to capture and average only those individual spectra within defined success criteria. Specifically, signal intensities for the substrate peptide are set to a minimum threshold of 3000 counts and a maximum intensity of 65,000 counts. This ensured that neither null spectra nor saturated spectra are averaged into the final readout. Between 1000 and 1500 laser shots are averaged for each sample. Data are collected in triplicate from 3 successive days to capture the maximum variability related to preparation of enzyme reaction, transfer of samples to MALDI target plates, data collection, and data extraction.
The isotope cluster areas for each peptide substrate and product peaks are extracted into a Microsoft Excel worksheet from the 10×10 array of spectral data simultaneously using the automated analysis function provided within the 4700 Explore software. The isotope cluster area is defined by the software algorithm based on the molecular weight and the general elemental composition of the peptides. The percent conversion (% C) of substrate to product is calculated as the cluster area of the product (P) divided by the sum of the cluster areas of the substrate (S) and the product multiplied by 100 as represented by the following equation: […]
For dose-dependent inhibition studies, the inhibition is plotted as a % Maximal Activity (% MA). Equation one is a measure of the ratio of product to substrate then solving for the % C. However, to measure inhibition of the enzyme activity, one must measure the degree to which that activity (% C) is curtailed. Thus the dose-dependant inhibition data is plotted as % MA where the maximal activity is the % C measured in control reactions with no inhibitor as represented by the following equation: […]
Usually IC50 stands for the concentration that inhibits the measured activity by half. The low end stands for higher potency, the high end for lower potency. Regarding `c1cc(Nc2nccc(NCCCN3CCOCC3)n2)cc(-c2nc3ccccc3s2)c1` [N^2-[3-(Benzo[d]thiazol-2-yl)-phenyl]-N^4-(3-morpholin-4-yl-propyl)-pyrimidine-2,4-diamine], the IC50 came out at 40 nM. In the case of `CN(C)c1cccc(Nc2nccc(NCCCN3CCOCC3)n2)c1` [N^2-[3-(N,N-dimethylamino)-phenyl]-N^4-(3-morpholin-4-yl-propyl)-pyrimidine-2,4-diamine], the IC50 was found to be 53 nM. The IC50 values of the last two molecules are within 1.5-fold of each other.

The molecule `c1cncc(-c2cccc(Nc3nccc(NCCCN4CCOCC4)n3)c2)c1` [N^2-[3-(Pyridin-3-yl)-phenyl]-N^4-(3-morpholin-4-yl-propyl)-pyrimidine-2,4-diamine] yielded an IC50 of 28 nM. With `COc1cccc(Nc2nccc(NCCCN3CCCC3)n2)c1` [N^2-[3-Methoxyphenyl]-N^4-(3-pyrrolidin-1-yl-propyl)-pyrimidine-2,4-diamine], the IC50 amounted to 16 nM. To `FC(F)(F)c1cccc(Nc2nccc(NCCCN3CCCC3)n2)c1` [N^2-[3-Trifluoromethyl-phenyl]-N^4-(3-pyrrolidin-1-yl-propyl)-pyrimidine-2,4-diamine] belongs 0.5 nM; to `OCc1cccc(Nc2nccc(NCCCN3CCOCC3)n2)c1` [{3-[4-(3-Morpholin-4-yl-propylamino)-pyrimidin-2-ylamino]-phenyl}-methanol], 465 nM. To “N^2-(3-Nitro-biphenyl-3-yl)-N^4-(3-morpholin-4-yl-propyl)-pyrimidine-2,4-diamine” belongs 182 nM.
